Source: PubChem BioAssay AID504555 (Johns Hopkins Ion Channel Center, 2011)
Activity calls are given as the source filed them.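 The calls were made as follows: active = dose dependent inhibition of hERG heart potassium channel current within the tested dose range; inactive = the rest.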

Legend:
[1] = target: Voltage-gated inwardly rectifying potassium channel KCNH2 (Homo sapiens) (UniProt Q12809); assay: hERG potassium channel inhibition, SAR follow-up, selectivity assay for Kir2.1 inhibitor project, CHO cells, automated electrophysiology (AID 504555); details: automated patch clamp, tail current
Sequence of Voltage-gated inwardly rectifying potassium channel KCNH2 (Homo sapiens) (Q12809 whole entry, looked up): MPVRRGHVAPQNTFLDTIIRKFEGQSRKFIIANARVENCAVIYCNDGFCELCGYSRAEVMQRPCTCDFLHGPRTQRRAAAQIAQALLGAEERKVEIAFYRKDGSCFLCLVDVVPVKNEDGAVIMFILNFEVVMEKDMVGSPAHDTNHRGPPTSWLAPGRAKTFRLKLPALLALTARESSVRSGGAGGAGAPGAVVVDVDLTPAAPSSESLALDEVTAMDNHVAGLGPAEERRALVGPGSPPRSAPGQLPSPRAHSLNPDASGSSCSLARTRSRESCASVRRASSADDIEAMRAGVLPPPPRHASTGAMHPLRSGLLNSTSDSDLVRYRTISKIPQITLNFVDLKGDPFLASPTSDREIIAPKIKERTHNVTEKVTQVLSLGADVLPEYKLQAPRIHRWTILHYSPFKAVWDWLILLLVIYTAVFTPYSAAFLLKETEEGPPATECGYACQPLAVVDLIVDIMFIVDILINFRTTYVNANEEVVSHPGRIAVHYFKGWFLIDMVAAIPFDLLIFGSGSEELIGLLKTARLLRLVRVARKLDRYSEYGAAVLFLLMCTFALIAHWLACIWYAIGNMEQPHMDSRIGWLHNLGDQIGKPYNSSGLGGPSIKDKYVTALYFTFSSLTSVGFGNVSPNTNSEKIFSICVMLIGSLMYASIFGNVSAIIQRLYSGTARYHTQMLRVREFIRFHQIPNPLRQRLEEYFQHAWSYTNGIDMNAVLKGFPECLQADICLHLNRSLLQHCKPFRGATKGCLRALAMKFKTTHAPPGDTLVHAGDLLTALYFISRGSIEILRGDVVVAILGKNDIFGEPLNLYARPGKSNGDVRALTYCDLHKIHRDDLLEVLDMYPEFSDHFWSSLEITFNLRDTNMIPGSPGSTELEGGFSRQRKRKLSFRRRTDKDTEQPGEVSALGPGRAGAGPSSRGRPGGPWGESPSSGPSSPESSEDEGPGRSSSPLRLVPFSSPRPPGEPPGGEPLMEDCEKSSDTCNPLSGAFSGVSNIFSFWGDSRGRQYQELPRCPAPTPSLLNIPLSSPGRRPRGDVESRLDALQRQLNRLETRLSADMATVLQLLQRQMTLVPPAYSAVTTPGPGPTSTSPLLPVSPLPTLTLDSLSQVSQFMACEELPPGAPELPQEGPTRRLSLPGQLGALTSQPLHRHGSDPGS

[2] = target: Inward rectifier potassium channel 2 (Mus musculus) (UniProt P35561); assay: as above; details: automated patch clamp, tail current, at 30 µM (top of the series)
Sequence of Inward rectifier potassium channel 2 (Mus musculus) (P35561 whole entry, looked up): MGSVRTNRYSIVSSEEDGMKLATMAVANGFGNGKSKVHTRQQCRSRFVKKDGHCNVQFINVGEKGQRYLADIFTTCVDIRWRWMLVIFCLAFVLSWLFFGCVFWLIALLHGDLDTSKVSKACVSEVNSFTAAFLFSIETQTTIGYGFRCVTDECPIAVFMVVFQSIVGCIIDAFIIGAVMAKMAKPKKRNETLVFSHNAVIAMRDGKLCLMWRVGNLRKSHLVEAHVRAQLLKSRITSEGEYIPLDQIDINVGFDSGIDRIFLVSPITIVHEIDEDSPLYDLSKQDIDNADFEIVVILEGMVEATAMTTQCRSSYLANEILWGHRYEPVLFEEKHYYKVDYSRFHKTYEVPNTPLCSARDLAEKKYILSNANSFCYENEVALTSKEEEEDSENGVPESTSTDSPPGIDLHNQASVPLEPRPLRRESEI

| SMILES | IC50 [1] | current change, negative = inhibition [2] |
| --- | --- | --- |
| Cc1ccc(Nc2cc(C)nc3c(C)cccc23)cc1 | 2.33 µM |  |
| C[C@@H](NS(=O)(=O)c1cccc(Br)c1)c1ccccc1 | 17.6 µM |  |
| O=S(=O)(c1ccc(F)cc1)N1CCCc2ccccc21 |  | inactive |
| Cc1ccc2nc(N3CCN(CCO)CC3)nc(-c3ccccc3)c2c1 | 2.9 µM |  |
| Cc1ccc(C)c(OCCCNCc2ccccc2)c1 | 19.3 µM |  |
| c1ccc(COc2ccc(OCCCNC3CCCC3)cc2)cc1 | 2.19 µM |  |
| Cc1noc(C)c1COC(=O)CCN1c2ccccc2Sc2ccccc21 | 29.1 µM |  |
| Cc1ccc(S(=O)(=O)N[C@@H](C)c2ccccc2)cc1 | 27.6 µM |  |
| CC(O)CNCCCOc1cccc(Oc2ccccc2)c1 (centres undefined) | 6.96 µM |  |
| C[C@@H](NS(=O)(=O)c1ccc(Cl)cc1)c1ccccc1 | 19.5 µM |  |
| C[C@H](NS(=O)(=O)c1cccc(Br)c1)c1ccccc1 | 10.2 µM |  |
| Cc1ccc2nc(NCc3ccccc3)[nH]c2c1 | 13 µM |  |
| C[C@H](NS(=O)(=O)c1ccc(Br)cc1)c1ccccc1 | 17.6 µM |  |
| c1ccc(CNc2c3ccccc3nc3ccccc23)cc1 | 0.433 µM |  |
